According to patent US9839674B2, “Methods of inducing indolamine 2,3—dioxygenase (IDO)” (IDOGEN AB, priority 2010, dated 2017):

Key:
[1] = test system: allotransplanted Lewis rat pancreatic islets; test: Rejection of allotransplanted pancreatic islets beneath the kidney capsule (blood glucose follow up); type: in vivo; conditions: Fischer 344 rats, 225 mg/kg intraperitoneal daily for 14 days starting 6-8 days after transplantation, FIG. 16
Procedure: Pancreatic islets were isolated from the pancreas of Lewis rats by established technique. After culture at 37° C. over night, 500-1200 islets were implanted beneath the kidney capsule of adult (11-14 weeks old) Fischer 344 rats that were confirmed hyperglucemic (blood glucose >20 mMol/L) after having received a single dose of 35-40 mg/kg intraperitoneally of Streptozotocine, which is selectively toxic to the insulin producing beta cells present in the pancreatic islets. […] The two exceptional rats that maintained a normal blood sugar were subjected to nephrectomy 40 and 43 days after transplantation to check whether their normal blood glucose was a result of unexpected sustained survival of the grafted islets (in which case their blood sugar should promptly increase upon removal of the graft) or was due to a recovery of some Streptozotocine-damaged pancreatic islets (in which case their blood sugar should stay normal despite removal of the graft). […] Twenty two days after transplantation only 1/10 of the zebularine treated rats had rejected the graft as indicated by a normal blood sugar in all but this single rat at completion of the treatment 20-22 days after transplantation and in all of 7 analyzed >1 week after the zebularine treatment was stopped (FIG. 16).

[2] = test system: IDO1 expression in THP-1 cells; test: IDO1 expression in THP-1 cells by PCR / quantitative real-time PCR; type: cell-based, human; conditions: for IDO1 expression (relative value): zebularine 100 uM, interferon gamma 200 IU/ml, alone or both together, FIG. 1
Procedure: (§1) THP-1 (ATCC: TIB-202) is a human monocytic cell line that originates from an acute monocytic leukemia. It has the phenotype of monocytes but can be differentiated to a more dendritic phenotype. In the current study, the THP-1 cells were in vitro passaged in RPMI 1640 medium supplemented with 5% or 10% FCS, 10 mM Hepes, 1 mM Sodium pyruvate, and 50 ug/ml gentamicin (R5 or R10 medium respectively). The cell density was adjusted to 200 000 cells per ml, and the cultures were incubated for four to seven days at 37° C. with 10% CO2 in a humidified incubator. The substance, or combination of substances, being studied, were added to the medium at specified time points and in the case of IFN-gamma removed from medium as indicated. 96-168 hours after initiation of treatment, the IDO expression was assessed by PCR or by Quantitative PCR (Roche). RNA was extracted from cells cultured in flasks or six-well plates using Trizol reagent according to Invitrogen's protocol. Residual DNA was removed through Rnase free DNase (Roche Applied Science) treatment. Quality and quantity of the isolated RNA was measured by spectrophotometer and gel electrophoresis.
Quantitative real-time PCR analyses (qRT-PCR) were performed using Super-Script III Platinum Two-Step qRT-PCR Kit with SYBR Green (Invitrogen). A total of 100-500 ng total RNA was used in a 20 ul RT reaction using a mixture of polydT and random hexamer primers. The cDNA obtained was diluted to a total volume of 80 ul and stored at −20° C. The primer sequences for the different genes were designed using Gene Fisher software support (G. Giegerich, F. Meyer, C. Schleiermacher, ISMB-96). The primers used for amplification of the IDO gene were: Forward: SEQ ID NO: 5—5′-[…]-3′, Primer sequences, Reverse: SEQ ID NO: 6—TTTCACA-CAGGCGTCATAAGCT-3′.
Hypoxanthine guanine phosphoribosyl transferase (HPRT) HPRT Forward: SEQ ID NO: 7—5′-[…]-3′, HPRT Reverse: SEQ ID NO: 8—5′-[…]-3′ according to the cDNA sequence, were used. The qRT-PCR was performed in 20 ul reaction consisting of 2 ul diluted cDNA (12.5 ng), 0.3 uM of each primer, 1 ul bovine serum albumin (50 ug/ml), and 10 ul Platinum SYBR Green qRT-PCR superMix-UDG. The amplification of IDO was carried out in a Light Cycler (Roche Molecular Biochemicals) with the following thermal profile: Platinum SYBR Green qRT-PCR superMix-UDG incubation at 50° C. for 2 min, then denaturing at 95° C. for 5 min, followed by 45 cycles at 94° C. for 2 s, 58° C. for 10 s, and 72° C. for 14 s. The amplification of HPRT was carried out as follows, UDG incubation at 50° C. for 2 min, denaturing at 95° C. for 5 min, followed by 45 cycles at 94° C. for 2 s, 55° C. for 10 s, and 72° C. for 14 s. After amplification a melting curve analysis was performed. The qRT-PCR experiments were always run in triplicate.

[3] = test system: IDO1 expression in THP-1 cells; test: IDO1 expression in THP-1 cells by reverse transcriptase PCR (bands), kinetics; type: cell-based, human
Procedure: as §1
The sequences of forward primers and reverse primers for the human IDO-1 gene analyzed and the house-keeping gene HPRT respectively, were: IDO-1 forward: 5′-[…]-3′, reverse: 5′-C AGAC AAAT AT A TGCGAAGAAC; HPRT Forward: 5′-[…]-3′, HPRT Reverse: 5′-ACTAAGCAGATGGCCAC AGAA-3′. The PCR conditions were set as follows: 1 denaturing cycle at 94° C. for 2 min followed by 40 cycles (for the IDO-1) or 30 cycles (for the HPRT) at 94° C. for 15 s, 53° C. for 30 s, and 72° C. for 30 s with a final extension reaction at 72° C. for 5 min.
Materials and methods used were the same as described in Example 1 above. […] In panel B, the THP-1 cells were given zebularine alone during 5 days and a weak band was detected. […] In panel C the THP-1 cells were exposed to zebularine for 6 days and interferon gamma was given during 24 hours after four days and the cells were harvested after a total of 6 days. […]

[4] = IFN-g 100 iu/ml or IFN-A alone for 24 h (day 4), FIG. 11
[5] = IFN-g 100 iu/ml or interferon A 25 ng/ml alone for 24 h (day 4), FIG. 12

Row | Molecule | rats that had rejected the graft twenty two days after transplantation [1] | IDO1 expression (relative value) [2] | IDO1 expression after 168 h of culture [2, 4] | IDO1 expression after 168 h of culture [2, 5] | course of IDO1 induction after the first 24 hours ([2]; interferon gamma 200 IU/ml initial 24 h, alone or with zebularine 100 uM for the entire period, harvest 48-96 h, FIG. 5) | IDO1 expression after 10, 12 or 14 days of culture ([2]; interferon gamma 200 iu/ml alone for 24 h on day 4, FIG. 10) | IDO1 induction after 24 hours ([2]; zebularine 100 uM or interferon gamma 200 IU/ml alone, harvest 24 h, FIG. 5) | IDO1 expression (RT-PCR band), panel B ([3]; zebularine 5 days, interferon gamma after 3 days for 24 h, tested 24 hours after removal, FIG. 6B) | IDO1 expression (RT-PCR band), panel C ([3]; zebularine 6 days, interferon gamma 24 hours after four days, harvest after 6 days, FIG. 6C) | IDO1 expression (RT-PCR band), panel A ([3]; zebularine four days, interferon gamma added after 3 days, 24 hours before harvest, FIG. 6A)
1 | O=c1ncccn1[C@@H]1O[C@H](CO)[C@@H](O)[C@H]1O [zebularine, reference compound] | 1/10 | 9 | – | – | – | – | – | – | – | –
2 | interferon A | – | – | minimal | minimal | – | – | – | – | – | –
3 | interferon gamma: interferon gamma (Sigma), IDO inducer | – | 80 | minimal | minimal | not sustained and dropped rapidly | minimal | strong | weak band | almost no IDO1 induction | strong band
